A word on the EC50: it is the midpoint of the concentration-response curve. The term inhibition denotes the change of the read-out against control, counted positive when it falls.

The record followed here is patent publication US10653688B2, “6-(6-membered heteroaryl and aryl)isoquinolin-3-yl carboxamides and preparation and use thereof” (Samumed, LLC, priority 2017, dated 2020).

Read-outs that look alike come from different tables or passages of the source.

Assay [1] relates to LL29 cells (primary human fibroblasts derived from IPF patients), α-smooth muscle actin. Nature of the assay: Inhibition of fibrotic process: TGF-β1-treated primary human fibroblasts, αSMA staining.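 As to all read-outs here: controls were TGF-β1-stimulated wells with DMSO vehicle as the positive reference and cells given DMSO alone as the negative reference.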 Format: cell-based. The following applies: Homo sapiens, Fibroblast; for EC50: 96 h, TGF-β1 20 ng/mL, 4 days, % cells positive for αSMA; for inhibition at 10 µM: read-out: percent inhibition at 10 μM (given for EC50 >10 μM), TGF-β1, αSMA, 10 μM.
Protocol: Representative compounds were screened using primary human fibroblasts (derived from IPF patients) treated with TGF-β1 to determine their ability to inhibit the fibrotic process.
Human Fibroblast Cell Culture:
Each compound was dissolved in DMSO as a 10 mM stock and used to prepare compound source plates. […] LL29 cells were plated at 1,500 cells/well in 70 μL/well F12 medium supplemented with 1% Fetal Bovine Serum. […] Wells treated with TGF-β1 and containing DMSO were used as positive control, and cells with only DMSO were negative control. Cells were incubated at 37° C. and 5% CO2 for 4 days. Following incubation for 4 days, SYTOX green nucleic acid stain (Life Technologies [Thermo Fisher Scientific]) was added to the wells at a final concentration of 1 μM and incubated at room temperature for 30 min. Cells were then fixed using 4% formaldehyde (Electron Microscopy Sciences), washed 3 times with PBS followed by blocking and permeabilization using 3% Bovine Serum Albumin (BSA; Sigma) and 0.3% Triton X-100 (Sigma) in PBS.

In assay [2] the test system is SW480 colon carcinoma cells. Nature of the assay: Cell viability assay (CellTiter-Glo). Format: cell-based, human. The following applies: Homo sapiens; for EC50: 96 h, four days, CellTiter-Glo. The procedure:
SW480 colon carcinoma cells were transduced with a lentiviral vector expressing luciferase with a human Sp5 promoter consisting of a sequence of eight TCF/LEF binding sites. SW480 cells stably expressing the Sp5-Luc reporter gene and a hygromycin resistance gene were selected by treatment with 150 μg/mL of hygromycin for 7 days. These stably transduced SW480 cells were expanded in cell culture and used for all further screening activities.
For the Cell Viability Assays, the cells were plated at 2,000 cells/well in 384-well plates with a DMEM medium containing 1% fetal bovine serum, and 1% Penicillin-Streptomycin and incubated for […] at 37° C. and 5% CO2. Eight replicates of DMSO-treated cells served as controls and cells treated with compound were performed in duplicate.
After incubation, 10 μL of CellTiter-Glo (Promega) was added to each well allowed to incubate for approximately 12 minutes. This reagent “results in cell lysis and generation of a luminescent signal proportional to the amount of ATP present. The amount of ATP is directly proportional to the number of cells present in culture, in agreement with previous reports. The CellTiter-Glo Assay generates a “glow-type” luminescent signal, produced by the luciferase reaction (Promega.com)”.

The target of assay [3] is recombinant GSK3β kinase (Homo sapiens (Human), UniProt P49841). Briefly: GSK3β kinase assay (Ser/Thr 09 peptide Z-lyte, FRET).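 Also: FRET read-out as coumarin over fluorescein emission ratio, compounds incubated one hour at room temperature, IC50 from dose-response curve fit.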 Format: biochemical.
Chain of recombinant GSK3β kinase (P49841 whole entry): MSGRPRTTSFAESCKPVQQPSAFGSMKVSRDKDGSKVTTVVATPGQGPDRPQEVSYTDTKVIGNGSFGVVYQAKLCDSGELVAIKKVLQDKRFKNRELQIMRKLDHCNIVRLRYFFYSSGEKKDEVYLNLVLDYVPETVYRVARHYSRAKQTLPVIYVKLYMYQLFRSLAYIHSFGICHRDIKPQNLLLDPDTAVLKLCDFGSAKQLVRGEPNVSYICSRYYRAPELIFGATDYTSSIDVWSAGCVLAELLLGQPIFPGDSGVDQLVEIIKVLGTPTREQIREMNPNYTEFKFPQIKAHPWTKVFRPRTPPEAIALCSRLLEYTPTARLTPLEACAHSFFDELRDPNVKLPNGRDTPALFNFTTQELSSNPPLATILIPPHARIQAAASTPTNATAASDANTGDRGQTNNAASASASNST
Protocol: Each compound is dissolved in DMSO as a 10 mM stock and used to prepare compound source plates. Serial dilution (1:3, 11-point dose-response curves from 10 M to 0.0003 M) and compound transfer was performed using the ECHO 550 (Labcyte, Sunnyvale, Calif.) into 1536-well black-walled round bottom plates (Corning).
This is a non-radioactive assay using fluorescence resonance energy transfer (FRET) between coumarin and fluorescein to detect kinase activity which is represented as ratio of coumarin emission/fluorescein emission.
The mixture is allowed to incubate with the representative compounds for one hour at room temperature. All reactions were performed in duplicate. Unphosphorylated (“0% Control”) and phosphorylated (“100% control”) forms of Ser/Thr 18 serve as control reactions.
After incubation, diluted Development Buffer is added to the reaction and allowed to further incubate for one hour at room temperature.
Dose-response curves are generated and inhibitory concentration (IC50) values are calculated using non-linear regression curve fit in the Dotmatics' Studies Software (Bishops Stortford, UK).
Assay [4] concerns the target recombinant DYRK1A kinase (Homo sapiens (Human), UniProt Q13627). Nature of the assay: DYRK1A kinase assay (Ser/Thr 18 peptide Z-lyte, FRET).
Assay [5] deals with IL-6 in human peripheral blood mononuclear cells (huPBMCs). Nature of the assay: IL-6 inhibition in LPS-stimulated human peripheral blood mononuclear cells (HTRF). To be noted: Homo sapiens, PBMC; for EC50: LPS 50 ng/mL, 22 hours, IL-6 HTRF; for inhibition at 10 µM: read-out: percent inhibition at 10 μM (given for EC50 >10 μM), LPS, IL-6, 10 μM. Format: cell-based. On the procedure:
Human Peripheral Blood Mononuclear Cells:
Fresh Normal PB MNC (Catalog # PB001, AllCells, Alameda, Calif.) were shipped overnight at 4° C. and resuspended in Roswell Park Memorial Institute (RPMI) 1640 Medium, with GlutaMAX Supplement (Catalog #61870127, ThermoFisher Scientific, Waltham, Mass.) supplemented with 1% Penicillin-Streptomycin (Catalog #15140163, ThermoFisher Scientific, Waltham, Mass.) and 1% fetal bovine serum (FBS) (Catalog #16140089, ThermoFisher Scientific, Waltham, Mass.) assay media.
Fresh normal human peripheral blood mononuclear cells (huPBMCs) were resuspended in 1% FBS-RPMI assay media with 1% Penicillin-Streptomycin 1% to a cell concentration of 1×10e6 cells/mL. […] 50 ng/mL of Lipopolysaccharides from Escherichia coli 0111:B4 (Catalog # L5293-2ML, Sigma-Aldrich, St. Louis, Mo.) was added after 2 hours and cells were incubated for another 22 hours at 37° C.-5% CO2. After 22 hour incubation, a mixture of anti-IL6 XL665 and anti-IL-6 Cryptate diluted in reconstitution buffer (Catalog #62IL6PEC, Cisbio Inc., Bedford, Mass.) was added to each well. Following incubation for 3 hours at room temperature, Homogeneous Time-Resolved Fluorescence (HTRF) was measured using the Envision (Perkin Elmer, Shelton, Conn.) at 665 nm and […]. The ratio of fluorescence at 665 nm to 620 nm was used as a readout for IL-6 quantification. All samples were processed in duplicate. Readings were normalized to DMSO treated cells and normalized activities were utilized for EC50 calculations. EC50 was determined using software generated by Dotmatics Limited (Windhill Bishops Stortford Herts, UK) using the Levenberg-Marquardt 4 parameter fitting procedure with finite different gradients.
On the technique in general: TR-FRET usually uses a lanthanide donor and a delayed reading to cut background.

Assay [6] relates to Wnt activity (SW480 colon carcinoma cells stably expressing the Sp5-Luc reporter gene). Nature of the assay: Wnt activity screening assay (Sp5-Luc reporter gene assay). Format: cell-based, human. The following applies: Homo sapiens, 36 to 48 hours. The source says: The screening assay for Wnt activity is described as follows. Reporter cell lines can be generated by stably transducing cancer cell lines (e.g., colon cancer) or primary cells (e.g., IEC-6 intestinal cells) with a lentiviral construct that includes a Wnt-responsive promoter driving expression of the firefly luciferase gene.
SW480 colon carcinoma cells were transduced with a lentiviral vector expressing luciferase with a human Sp5 promoter consisting of a sequence of eight TCF/LEF binding sites. SW480 cells stably expressing the Sp5-Luc reporter gene and a hygromycin resistance gene were selected by treatment with 150 μg/mL of hygromycin for 7 days. These stably transduced SW480 cells were expanded in cell culture and used for all further screening activities. […] For Sp5-Luc reporter gene assays, the cells were plated at 4,000 cells/well in 384-well plates with a DMEM medium containing 1% fetal bovine serum, and 1% Penicillin-Streptomycin and incubated for 36 to 48 hours at 37° C. and 5% CO2. Following incubation, 15 μl of BriteLite Plus luminescence reagent (Perkin Elmer) was added to each well of the 384-well assay plates. The plates were placed on an orbital shaker for 2 min and then luminescence was quantified using the Envision (Perkin Elmer) plate reader. Readings were normalized to DMSO only treated cells, and normalized activities were utilized for EC50 calculations using the dose-response log (inhibitor) vs. response-variable slope (four parameters) nonlinear regression feature available in GraphPad Prism 5.0 (or Dotmatics).

The mark [7] stands for this setting: GSK3β kinase, head says EC50, method says IC50, ATP 46 μM.
The mark [8] stands for this setting: DYRK1A kinase, head says EC50, method says IC50, ATP 30 μM.

Consider `Nc1cncc(-c2ccc3cnc(NC(=O)c4ccc(F)cc4)cc3c2)c1` [Compound 36, N-(6-(5-Aminopyridin-3-yl)isoquinolin-3-yl)-4-fluorobenzamide], for which the EC50 turned out to be 292 nM in assay [1]; 493 nM in assay [2]; 8860 nM in assay [3] (setting [7]); 2 nM in assay [4] (setting [8]); 1220 nM in assay [5]; 379 nM in assay [6].

As for `Nc1cncc(-c2ccc3cnc(NC(=O)c4ccc(OC5CCNCC5)cc4)cc3c2)c1` [Compound 37, N-(6-(5-Aminopyridin-3-yl)isoquinolin-3-yl)-4-(piperidin-4-yloxy) benzamide], the EC50 in assay [1] was > 10000 nM; in assay [2], 81 nM; in assay [3] (setting [7]), 4620 nM; in assay [4] (setting [8]), 1 nM; in assay [5], 662 nM; in assay [6], 109 nM. In addition, the inhibition at 10 µM in assay [1] turned out to be 39.5%.

Regarding `CN1CCN(c2cc(C(=O)Nc3cc4cc(-c5cncc(N)c5)ccc4cn3)ccn2)CC1` [Compound 38, N-(6-(5-Aminopyridin-3-yl)isoquinolin-3-yl)-2-(4-methylpiperazin-1-yl) isonicotinamide], the EC50 in assay [1] is 603 nM; in assay [2], 225 nM; in assay [3], > 10000 nM; in assay [4] it was 2 nM; in assay [5], 765 nM; in assay [6], 75 nM.

Turning to `CN1CCN(c2cc(C(=O)Nc3cc4cc(-c5ccc(N)nc5)ccc4cn3)ccn2)CC1` [Compound 39, N-(6-(6-Aminopyridin-3-yl)isoquinolin-3-yl)-2-(4-methylpiperazin-1-yl) isonicotinamide], the half-maximal effective concentration (EC50) was 2480 nM in assay [1]; 2720 nM in assay [2]; > 10000 nM in assay [3]; 12 nM in assay [4]; 3390 nM in assay [5]; 710 nM in assay [6].

For `CNc1ccc(-c2ccc3cnc(NC(=O)c4ccnc(N5CCN(C)CC5)c4)cc3c2)cn1` [Compound 40, N-(6-(6-(Methylamino)pyridin-3-yl)isoquinolin-3-yl)-2-(4-methylpiperazin-1-yl)isonicotinamide], the EC50 in assay [1] was 1470 nM; in assay [2], 3370 nM; in assay [3] it was > 10000 nM; in assay [4], 64 nM; in assay [5], > 10000 nM; in assay [6], 4120 nM. Besides, the inhibition at 10 µM in assay [5] was 3.7%.

For the compound `CC(C)Nc1cncc(-c2ccc3cnc(NC(=O)c4cccc(C5CCNCC5)c4)cc3c2)c1` [Compound 41, N-(6-(5-(Isopropylamino)pyridin-3-yl)isoquinolin-3-yl)-3-(piperidin-4-yl) benzamide], the EC50 was 571 nM in assay [1]; 636 nM in assay [2]; > 10000 nM in assay [3] (setting [7]); 4 nM in assay [4] (setting [8]); 1110 nM in assay [5]; 573 nM in assay [6].

As for `CC(C)Nc1cncc(-c2ccc3cnc(NC(=O)c4cccc(C5CCN(C)CC5)c4)cc3c2)c1` [Compound 42, N-(6-(5-(Isopropylamino)pyridin-3-yl)isoquinolin-3-yl)-3-(1-methylpiperidin-4-yl)benzamide], the concentration giving a half-maximal response (EC50) in assay [1] is 631 nM; in assay [2], 491 nM; in assay [3] (setting [7]), > 10000 nM; in assay [4] (setting [8]) it was 3 nM; in assay [5], 1100 nM; in assay [6], 403 nM.

Consider `CC(C)Nc1cncc(-c2ccc3cnc(NC(=O)c4ccnc(N5CCN(C)CC5)c4)cc3c2)c1` [Compound 43, N-(6-(5-(Isopropylamino)pyridin-3-yl)isoquinolin-3-yl)-2-(4-methylpiperazin-1-yl)isonicotinamide], for which the EC50 in assay [1] is 217 nM; in assay [2], 467 nM; in assay [3] (setting [7]), > 10000 nM; in assay [4] (setting [8]), 2 nM; in assay [5], 2060 nM; in assay [6] it was 275 nM.

With `O=C(Nc1cc2cc(-c3cncc(NC4CCNCC4)c3)ccc2cn1)c1ccc(F)cc1` [Compound 45, 4-fluoro-N-(6-(5-(piperidin-4-ylamino)pyridin-3-yl)isoquinolin-3-yl) benzamide], the EC50 in assay [1] is 622 nM; in assay [2], 865 nM; in assay [3], > 10000 nM; in assay [4] it was 9 nM; in assay [5], 1130 nM; in assay [6] it was 698 nM.

Turning to `CN1CCC(Nc2cncc(-c3ccc4cnc(NC(=O)c5ccc(F)cc5)cc4c3)c2)CC1` [Compound 46, 4-Fluoro-N-(6-(5-((1-methylpiperidin-4-yl)amino)pyridin-3-yl)isoquinolin-3-yl)benzamide], the EC50 in assay [1] was determined as 682 nM; in assay [2] it was 4250 nM; in assay [3] (setting [7]) it was 7090 nM; in assay [4] (setting [8]) it was 3 nM; in assay [5] it was 1380 nM; in assay [6], 4410 nM.

With `CN1CCN(c2cc(C(=O)Nc3cc4cc(-c5cncc(N(C)C)c5)ccc4cn3)ccn2)CC1` [Compound 48, N-(6-(5-(Dimethylamino)pyridin-3-yl)isoquinolin-3-yl)-2-(4-methylpiperazin-1-yl)isonicotinamide], the EC50 in assay [1] was 4880 nM; in assay [2] it was 6560 nM; in assay [3], > 10000 nM; in assay [4], 40 nM; in assay [5], 9680 nM; in assay [6], 2320 nM.

On to `CN1CCN(c2cc(C(=O)Nc3cc4cc(-c5ccc(N(C)C)nc5)ccc4cn3)ccn2)CC1` [Compound 49, N-(6-(6-(Dimethylamino)pyridin-3-yl)isoquinolin-3-yl)-2-(4-methylpiperazin-1-yl)isonicotinamide], for which the concentration giving a half-maximal response (EC50) is > 10000 nM in assay [1]; > 10000 nM in assay [2]; > 10000 nM in assay [3] (setting [7]); 904 nM in assay [4] (setting [8]); > 10000 nM in assay [5]; > 10000 nM in assay [6]. In addition, the inhibition at 10 µM in assay [1] was found to be 33.5%; in assay [2] (read-out: percent inhibition at 10 μM (given for EC50 >10 μM), 10 μM) it was 37.1%; in assay [5] it was 0%.
